We go through 27 compounds from patent publication US10196363B2, “Dihydropyrimidin-2-one compounds and medical use thereof” (JAPAN TOBACCO INC., priority 2014, dated 2019).

Read-outs that look alike come from different tables or passages of the source.

One test deals with T1, human RORγ (Homo sapiens, UniProt P51449).
T1 construct: human RORγ, from Ser253 to Lys518; expressed in transfected cells; host or cells: CHO cells (Chinese hamster ovary), transient co-transfection with pG5-Luc
T1 sequence (P51449 253-518): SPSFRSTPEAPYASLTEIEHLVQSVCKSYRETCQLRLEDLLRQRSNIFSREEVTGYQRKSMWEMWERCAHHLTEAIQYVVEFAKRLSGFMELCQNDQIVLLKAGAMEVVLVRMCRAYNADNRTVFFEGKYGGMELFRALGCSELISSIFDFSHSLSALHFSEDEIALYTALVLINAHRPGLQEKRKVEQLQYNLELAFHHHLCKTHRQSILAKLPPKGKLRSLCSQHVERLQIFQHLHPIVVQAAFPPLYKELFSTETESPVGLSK
The test can be described thus: In vitro assay of inhibitory effect against RORγ transcriptional activity (GAL4-hRORγ LBD luciferase reporter gene assay in CHO cells). It counts as cell-based. Conditions: for hRORγ luciferase activity, %-of-control: value in parentheses beside the > EC50 bound, vehicle-control 0.2% DMSO alone = 100%. The procedure:
(§1) In Vitro Assay of Inhibitory Effect Against RORγ Transcriptional Activity
(§2) Inhibitory effect of a test article on transcriptional activity of RORγ was measured by means of the following reporter gene assay.
(§3) cDNA encoding human and mouse RORγ ligand binding domain (LBD) were obtained based on the sequences of human RORγ (Genebank registered number NM_005060.3) and mouse RORγ (Genebank registered number NM_011281.2) (LBD sequence: human RORγ, from Ser253 to Lys518; mouse RORγ, from Ile251 to Lys516).
(§4) The LBD cDNA of human or mouse RORγ was inserted into pFA-CMV vector (Strategene), which expresses GAL4-DNA binding domain fusion protein. The resulting plasmids are hereinafter referred to as GAL4-hRORγ plasmid and GAL4-mRORγ plasmid, respectively.
(§5) GAL4-hRORγ plasmid or GAL4-mRORγ plasmid was transiently co-transfected into Chinese hamster ovary cells (CHO cells) with pG5-Luc (Promega), a reporter plasmid expressing firefly luciferase depending on GAL4.
(§6) TransIT (Registered trademark) CHO transfection reagent (Mirus) was used to co-transfect GAL4-hRORγ plasmid or GAL4-mRORγ plasmid into CHO cells with pG5-Luc plasmid. One day before the assay, CHO cells were suspended in HAM F-12 Nutrient medium containing 10 v/v % fetal bovine serum and seeded at 6×10^6 cells per 175 cm^2 cell culture flask. Fifty four micro litters of TransIT (Registered trademark) CHO reagent was added into a 15 ml tube containing 1.16 mL of HAM F-12 Nutrient medium without fetal bovine serum, and mixed and incubated at room temperature for 10 min. Thirty six micro litters of plasmid solution containing the GAL4-hRORγ plasmid (400 ng), pG5-Luc plasmid (9000 ng) and pcDNA3 plasmid (8600 ng) were added into the tube and mixed gently. In case of mouse assay, a plasmid solution containing the GAL4-mRORγ plasmid (250 ng), pG5-Luc plasmid (9000 ng) and pcDNA3 plasmid (8750 ng) was added, instead. The mixture was incubated at room temperature for 10 min. Nine micro litters of CHO Mojo Reagent were then added into each tube and mixed gently. The mixture was incubated at room temperature for 10 min. The resultant transfection reagent was applied to the cell culture. After incubation at 37° C., 5% CO2 for 4 hours, the plasmid-transfected CHO cells were harvested with a trypsin treatment. The collected cells were resuspended in HAM F-12 Nutrient medium supplemented with 10 v/v % fetal bovine serum and plated into a 384-well-white plate at 8,000 cells/50 μL/well. The plate was incubated at room temperature for 1 hour and then further incubated at 37° C., 5% CO2 for 3 hours. The test articles were dissolved in dimethylsulfoxide (DMSO) to obtain a concentration of 10 mM. The resulting solution was diluted with a medium just before use and added to the cells in the plate to prepare 8 different concentrations of the test article. The final concentration of DMSO was 0.2 v/v %. After the addition of the test articles, the cells were incubated at 37° C., 5% CO2 for 2 days.
(§7) RORγ transcriptional activity was detected as the intracellular luciferase activity using SteadyLite HTS Reporter Gene Assay System (Perkin Elmer). StedyLite Reagent was diluted five-fold into a solution containing Extension reagent (10 mM Tricine, 0.2% w/v BSA, 0.02% v/v Tween-20) to obtain the luciferase substrate solution. After the measurement of the cell viability using Resazurin, the culture media in the plate were removed, and then the luciferase substrate solution was added into each well. After the incubation at room temperature for 10 minutes, luminescence of each well was measured by a microplate reader. The luciferase activity derived from the luminescence count in the vehicle-control well treated with 0.2% DMSO alone was defined as 100%, and the luciferase activity in the test article was calculated as a percentage (%-of-control) based on the value of the vehicle-control. EC50 value of test article was calculated by curve fitting with GraphPad Prism. […]
A general note: In a reporter assay the amount or activity of a reporter protein is the signal.

The target of a further test is T2, mouse RORγ (Mus musculus, UniProt P51450).
T2 construct: mouse RORγ, from Ile251 to Lys516; expressed in transfected cells; host or cells: CHO cells (Chinese hamster ovary), transient co-transfection with pG5-Luc
T2 sequence (P51450 251-516): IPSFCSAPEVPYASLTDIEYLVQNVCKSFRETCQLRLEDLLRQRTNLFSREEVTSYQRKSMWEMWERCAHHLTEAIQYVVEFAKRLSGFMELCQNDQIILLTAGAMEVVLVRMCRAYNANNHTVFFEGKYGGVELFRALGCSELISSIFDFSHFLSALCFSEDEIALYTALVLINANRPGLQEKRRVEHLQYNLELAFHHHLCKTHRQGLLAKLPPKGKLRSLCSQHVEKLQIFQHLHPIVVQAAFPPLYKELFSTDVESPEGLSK
The test can be described thus: In vitro assay of inhibitory effect against RORγ transcriptional activity (GAL4-mRORγ LBD luciferase reporter gene assay in CHO cells). It counts as cell-based. Conditions: for mRORγ luciferase activity, %-of-control: value in parentheses beside the > EC50 bound, vehicle-control 0.2% DMSO alone = 100%. How it is done: as §1, §2, §3, §4, §5, §6, §7

The mark [1] stands for this setting: GAL4-hRORγ LBD luciferase reporter, CHO cells, read-out: LUC EC50 hRORγ.
Where [2] appears, read: GAL4-mRORγ LBD luciferase reporter, CHO cells, read-out: LUC EC50 mRORγ.
The mark [3] stands for this setting: GAL4-hRORγ LBD / pG5-Luc in CHO cells, 2 days incubation.
The mark [4] stands for this setting: GAL4-mRORγ LBD / pG5-Luc in CHO cells, 2 days incubation.

The EC50 is the midpoint of the concentration-response curve. As to `CC(C)(C)CCc1ccc([C@]2(C)NC(=O)N(C34CC(C(=O)O)(C3)C4)C=C2C2CC(F)(F)C2)cc1Cl` [Example 316], the results for the EC50 at human RORγ (setting [1]) and at mouse RORγ (setting [2]) were 18 nM and 19 nM, respectively.
As to `CC(C)C1=CN(C23CC(C(=O)O)(C2)C3)C(=O)N[C@@]1(C)c1ccc(CCC(C)(C)C)c(Cl)c1` [Example 77], the results for the EC50 at human RORγ (setting [3]) and on mouse RORγ (setting [4]) were 15 nM and 24 nM, respectively.
For the compound `CC(C)C1=CN(C2CN(C(=O)OC(C)(C)C)CC2C(=O)O)C(=O)N[C@@]1(C)c1ccc(CCC(C)(C)C)c(Cl)c1` (single isomer, unassigned) [Example 237], the values for the concentration giving a half-maximal response (EC50) on human RORγ (setting [1]) and on mouse RORγ (setting [2]) were 719 nM and 673 nM, respectively.
As for `CC(C)C1=CN(c2ccc(C(=O)O)cc2)C(=O)N[C@@]1(C)c1ccc(CCC(C)(C)C)c(Cl)c1` [Example 159, 4-{(S)-4-[3-chloro-4-(3,3-dimethyl-butyl)-phenyl]-5-isopropyl-4-methyl-2-oxo-3,4-dihydro-2H-pyrimidin-1-yl}-benzoic Acid], the EC50 at human RORγ (setting [3]) was determined as 21 nM; on mouse RORγ (setting [4]), 23 nM.
For the compound `CC(C)(C)CCc1ccc([C@]2(C)NC(=O)N(CCC(=O)O)C=C2CCS(C)(=O)=O)cc1Cl` [Example 303], the EC50 at human RORγ (setting [1]) amounted to 1400 nM; on mouse RORγ (setting [2]), 1310 nM.
For the compound `CC(C)C1=CN(CCCC(=O)O)C(=O)NC1(C)c1ccc(OCC(C)(C)C)c(Cl)c1` (racemic) [Example 9], the EC50 at human RORγ (setting [3]) came out at 55 nM; at mouse RORγ (setting [4]), 32 nM.
Take `CC(C)C1=CN(CC(C)C(=O)O)C(=O)N[C@@]1(C)c1ccc(CCC(C)(C)C)c(Cl)c1` (single isomer, unassigned) [Example 299]: the EC50 is 11 nM on human RORγ (setting [1]) and 16 nM on mouse RORγ (setting [2]).
`C[C@@]1(c2ccc(OCCC3CC3)c(Cl)c2)NC(=O)N(C23CC(C(=O)O)(C2)C3)C=C1C1CC(F)(F)C1` [Example 354]: the EC50 at human RORγ (setting [1]) amounted to 239 nM; on mouse RORγ (setting [2]), 144 nM.
Consider `CC(C)C1=CN(CCC(C)(C)C(=O)O)C(=O)N[C@]1(C)c1ccc(CCC(C)(C)C)c(Cl)c1` [Example 54], for which the EC50 on human RORγ (setting [3]) and on mouse RORγ (setting [4]) was > 8000 nM in each case. The “hRORγ luciferase activity, %-of-control” value on human RORγ is listed as “(92%)”. Besides, the “mRORγ luciferase activity, %-of-control” value on mouse RORγ is given as “(81%)”.
On to `CC(C)=Cc1ccc(C2(C)NC(=O)N(CCCC(=O)O)C=C2C(C)C)cc1` (racemic) [Example 188], for which the EC50 is 2610 nM at human RORγ (setting [3]) and 1130 nM at mouse RORγ (setting [4]).
With `COCCC1=CN(C23CC(C(=O)O)(C2)C3)C(=O)N[C@@]1(C)c1ccc(CCC(C)(C)C)c(C(F)(F)F)c1` [Example 340], the values for the EC50 at human RORγ (setting [1]) and at mouse RORγ (setting [2]) were 123 nM and 43 nM, respectively.
For `CC(C)CCOc1ccc([C@]2(C)NC(=O)N(c3ccc(C(=O)O)cc3)C=C2C2CC(F)(F)C2)cc1Cl` [Example 348] the same measures were 46 nM and 39 nM.
For `CC(C)C1=CN(c2ccc(F)c(C(=O)O)c2)C(=O)N[C@@]1(C)c1ccc(CCC(C)(C)C)c(Cl)c1` [Example 208], in that order: 21 nM and 40 nM.
For `COCCC1=CN(c2ccc(C(=O)O)cn2)C(=O)N[C@@]1(C)c1ccc(CC2CCCCC2)c(Cl)c1` [Example 338] the same measures were 13 nM and 12 nM.
`CC(C)(C)CCc1ccc([C@]2(C)NC(=O)N(c3ccc(C(=O)O)cc3)C=C2C2CC(F)(F)C2)cc1C(F)(F)F` [Example 342]: the half-maximal effective concentration (EC50) is 43 nM at human RORγ (setting [1]) and 28 nM on mouse RORγ (setting [2]).
`CC(C)C1=CN(CCC(=O)O)C(=O)N[C@@]1(C)c1ccc(C2CC3(CCC3)C2)c(Cl)c1` [Example 173]: the results for the EC50 at human RORγ (setting [3]) and at mouse RORγ (setting [4]) were 22 nM and 11 nM, respectively.
On to `CC(C)C1=CN(CCC(=O)O)C(=O)N[C@@]1(C)c1ccc(C=C2CCC(C)(C)CC2)c(Cl)c1` [Example 285], for which the EC50 at human RORγ (setting [1]) came to 1350 nM; at mouse RORγ (setting [2]) it was 30 nM.
Regarding `COCCC1=CN(c2ccc(C(=O)O)cc2)C(=O)N[C@@]1(C)c1ccc([C@H]2C[C@@H](C(C)(C)C)C2)c(Cl)c1` [Example 315], the results for the EC50 on human RORγ (setting [1]) and at mouse RORγ (setting [2]) were 13 nM and 19 nM, respectively.
For `COC1CC(C2=CN(c3ccc(C(=O)O)cc3)C(=O)N[C@@]2(C)c2ccc(CCC(C)(C)C)c(Cl)c2)C1` (single isomer, unassigned) [Example 277] the same measures were 23 nM and 38 nM.
For `CC(C)CCOc1c(F)cc([C@]2(C)NC(=O)N(CCC(=O)O)C=C2C(C)C)cc1Cl` [Example 195] the same measures were 18 nM and 12 nM.
Regarding `CC(C)C1=CN(CCC(=O)O)C(=O)N[C@]1(C)c1ccc(CCCC(C)(C)C)c(Cl)c1` [Example 123], the EC50 on human RORγ (setting [3]) and on mouse RORγ (setting [4]) was > 3200 nM in each case. Moreover, the “hRORγ luciferase activity, %-of-control” value on human RORγ is given as “(109%)”. Moreover, on mouse RORγ, the “mRORγ luciferase activity, %-of-control” value was “(100%)”.
Turning to `CC(C)(C)CCc1ccc(C2NC(=O)N(CCCC(=O)O)C=C2C(C)(C)C)cc1Cl` (single isomer, unassigned) [Example 11], the EC50 on human RORγ (setting [3]) and at mouse RORγ (setting [4]) was > 8000 nM in each case. In addition, at human RORγ, the “hRORγ luciferase activity, %-of-control” value is “(87%)”. Further, at mouse RORγ, the “mRORγ luciferase activity, %-of-control” value is “(79%)”.
Turning to `CC(C)(C)COc1ccc([C@]2(C)NC(=O)N(C34CC(C(=O)O)(C3)C4)C=C2C2CC(F)(F)C2)cc1Cl` [Example 355], the EC50 at human RORγ (setting [1]) amounted to 113 nM; at mouse RORγ (setting [2]) it was 52 nM.
Take `CC(C)C1=CN(c2ccc(C(=O)O)c(C(F)(F)F)c2)C(=O)N[C@@]1(C)c1ccc(CCC(C)(C)C)c(Cl)c1` [Example 283]: the 50% effective concentration (EC50) on human RORγ (setting [1]) stood at 18 nM; on mouse RORγ (setting [2]), 28 nM.
For `CC(C)C1=CN(Cc2ccc(C(=O)O)cc2)C(=O)N[C@@]1(C)c1ccc(CCC(C)(C)C)c(Cl)c1` [Example 204] the same measures were 14 nM and 17 nM.
Turning to `CO[C@H]1C[C@H](N2C=C(C(C)(C)CCC(=O)O)[C@](C)(c3ccc(CCC(C)(C)C)c(Cl)c3)NC2=O)C1` [Example 197], the EC50 came out at 13 nM on human RORγ (setting [1]) and 23 nM on mouse RORγ (setting [2]).
With `CC(C)C1=CN(CC[C@@H](O)C(=O)O)C(=O)N[C@@]1(C)c1ccc(CCC(C)(C)C)c(Cl)c1` [Example 89], the EC50 at human RORγ (setting [3]) and at mouse RORγ (setting [4]) was 16 nM each time.
